Reference: paper PMC10654507, “A cleavable chimeric peptide with targeting and killing domains enhances LPS neutralization and antibacterial properties against multi-drug resistant E. coli” (Communications Biology, 2023)
Values after ≈ are worked out from the molar mass of the structure shown. Where two headings read alike, the source gives them in different places. Residues, ends and D or L forms follow the SMILES beside them.

Legend:
S. typhimurium CVCC533 = format: cell-based, Salmonella typhimurium; conditions: repeated three times; for MBC: lowest concentration giving 99.9% reduction of the inoculum; for MIC: microtiter broth dilution, 10^5 CFU/mL, 37 °C, 16 ~ 18 h
Method: (§1) The minimum inhibitory concentration (MIC) and minimum bactericidal concentration (MBC) of peptides were determined by the microtiter broth dilution method according to Clinical and Laboratory Standards Institute (CLSI) guidelines. […] PBS was used as the negative control. […] The MBC value was calculated as the lowest concentration of peptides resulting in a 99.9% reduction of the original inoculum. All experiments were repeated three times.

Escherichia coli CVCC195 = format: cell-based; conditions: repeated three times; for MBC: lowest concentration giving 99.9% reduction of the inoculum; for MIC: microtiter broth dilution, 10^5 CFU/mL, 37 °C, 16 ~ 18 h
Method: as §1

[1] = tested on: Staphylococcus aureus ATCC43300; format: cell-based; conditions: repeated three times; for MBC: lowest concentration giving 99.9% reduction of the inoculum; for MIC: microtiter broth dilution, 10^5 CFU/mL, 37 °C, 16 ~ 18 h
Method: as §1

E. coli 0111: B4 LPS = experiment: BC (BODIPY-TR-cadaverine) displacement assay, binding to LPS; design: species or system Escherichia coli; unit not given here; conditions: Fig. 4a source data, mean
Method: The binding of peptides to LPS was determined according to the method described previously[34],[59]. In brief, E. coli 0111: B4 LPS (40 μg/mL) and BODIPY-TR-cadaverine (BC) (10 μM) were mixed in 50 mM Tris buffer (pH = 7.4) in equal proportions and added to a 96-well black plate (180 μL/well) in the dark. Different concentrations of chimeric peptide R7 and its parental (20 μL) were added into each well and detected by a fluorescence spectrophotometry at room temperature (excitation wavelength 580 nm, emission wavelength 620 nm). The change in relative fluorescence was recorded and the BC displacement rate was calculated. Polymycin B (PMB) was used as the positive control.

MDR E. coli CVCC195 = experiment: Mouse survival, preventive treatment before MDR E. coli challenge; format: in vivo; conditions: 7 μmol/kg i.p. at 0 h, MDR E. coli CVCC195 0.5 × 10^9 CFU/mouse i.p. at 6 h; five mice/group
Method: A sepsis mouse model established in our laboratory was used to evaluate the prevention effect of peptides. […] The survival rate of mice was recorded for 7 days. The mice injected with saline were used as negative control.

LPS [2] = experiment: Serum cytokines (TNF-α, IL-6, IL-1β, IL-10; ELISA) in LPS-challenged mice; format: in vivo, mouse; conditions: LPS-challenged mice pre-treated with 7 μmol/kg, range over sampling times (12 h, 24 h)
Method: (§2) After E. coli or LPS challenge, the mice were sacrificed at 12 h and 24 h, respectively, and the sera were collected to detect inflammatory cytokines (such as tumor necrosis factor-α (TNF-α), interleukin-6 (IL-6), interleukin-1β (IL-1β), and interleukin-10 (IL-10)) using the enzyme linked immunosorbent assay (ELISA) kits. To evaluate the specific activity of intestinal alkaline phosphatase (IAP), a 2 cm segment of duodenum was rapidly intercepted from the mice and homogenized; the IAP levels in the supernatant were detected by ELISA. In addition, the lungs were collected from the mice infected by E. coli after 12 and 24 h, respectively and were homogenized in sterile PBS for the bacterial counts assay.

LPS [3] = experiment: Intestinal alkaline phosphatase (IAP) activity in duodenum, LPS-challenged mice; format: in vivo, mouse; design: IAP levels in mice: unit not given beside the values; conditions: for IAP levels in mice: Fig. 7f source data, peptide + LPS, mean
Method: as §2

[4] = tested on: p65, p-p65, ERK1/2, p-ERK1/2 and IκBα; experiment: Western blotting of NF-κB and MAPK pathway proteins in lung tissues of LPS-challenged mice; format: in vivo, mouse; conditions: for IκBα/β-actin ratio / p-ERK1/2/ERK1/2 ratio / p-p65/p65 ratio: Supplementary Fig. 5b-d source data, lung tissues, peptide + LPS, mean; for ERK1/2 phosphorylation: lung tissues of 24 h, western blot
Method: Additionally, the lung tissues of 24 h were homogenized and suspended in […] buffer, and the protein levels of supernatants were quantified using a Bradford protein assay kit. A total of 30 μg proteins were analyzed on a sodium dodecyl sulfate-polyacrylamide gel electrophoresis gel and were immunoblotted onto PVDF membranes, followed by an incubation with the primary antibodies of p65, p-p65, extracellular signal-regulated kinase (ERK)1/2, p-ERK1/2 and IκBα overnight at 4 °C. After washing, the blots were incubated with the peroxidase conjugated goat-rabbit or goat-mouse antibodies. Relative protein expression levels were quantified by a densitometric measurement of chemiluminescence (ECL) reaction band. β-actin was used as the internal reference. […]
pathways in lung tissues.
LPS. a The protein levels of p65, p-p65, ERK1/2, p-ERK1/2, and IκBα in lungs were analyzed by western blotting. b Densitometric analysis of p-ERK1/2/ERK1/2 ratio. c. Densitometric analysis of p-p65/p65 ratio. d Densitometric analysis of IκBα/β-actin ratio. All data were analyzed with one-way ANOVA, and data are means ± SD (n = 3). p-values< 0.05 were considered significant. **, p < 0.01, […]
(1 picture or pasted object on this page, not shown here)

MDR E. coli = format: in vivo, mouse; design: key to therapeutic efficacy, survival, single-animal event: 1 represents a mouse death; 0 represents no death; conditions: for therapeutic efficacy, survival, single-animal event: Supplementary Fig. 3a source data, MDR E. coli challenge, one cell per mouse
Method: Supplementary Figure 3. Therapeutic eﬀicacy of cleavable chimeric peptide R7 in the mice
challenged with MDR E. coli or LPS After the intraperitoneal injection with MDR E. coli (a) or LPS
(b) at a concentration of LD100, the mice were treated with 7 μmol/kg R7 at 0.5 h and 8 h, respectively.
The mouse survival was recorded for 7 d. The mice injected with MDR E. coli/LPS or saline were used

In the case of `CSCC[C@H](NC(=O)[C@H](CCCNC(=N)N)NC(=O)[C@H](Cc1c[nH]c2ccccc12)NC(=O)[C@H](C)NC(=O)[C@H](Cc1c[nH]c2ccccc12)NC(=O)[C@H](CCCNC(=N)N)NC(=O)[C@H](Cc1c[nH]c2ccccc12)NC(=O)[C@H](C)NC(=O)[C@H](CCCCN)NC(=O)[C@@H](N)Cc1ccccc1)C(=O)N[C@@H](CCCCN)C(=O)N[C@@H](CCCCN)C(=O)N[C@@H](CC(C)C)C(=O)N[C@@H](C)C(=O)N[C@@H](C)C(=O)N1CCC[C@H]1C(=O)N[C@@H](CO)C(=O)O` [L7] (H-FKAWRWAWRMKKLAAPS-OH), the MBC (S. typhimurium CVCC533) is reported as 18.1 µM (≈ 38.6 µg/mL), the MIC (S. typhimurium CVCC533) is reported as 18.1 µM (≈ 38.6 µg/mL) and the MBC (Escherichia coli CVCC195) is reported as 4.53 µM (≈ 9.67 µg/mL). For the same compound, the MIC (Escherichia coli CVCC195) was 2.26 µM (≈ 4.82 µg/mL), the MBC [1] was 18.1 µM (≈ 38.6 µg/mL) and the MIC [1] was 18.1 µM (≈ 38.6 µg/mL). For the same compound, the “binding affinity to LPS” value (E. coli 0111: B4 LPS; peptide concentration 0.05 μM) was 17.2577, the “binding affinity to LPS” value (E. coli 0111: B4 LPS; peptide concentration 0.1 μM) was 18.4019 and the “binding affinity to LPS” value (E. coli 0111: B4 LPS; peptide concentration 0.5 μM) was 19.7825. For the same compound, the “binding affinity to LPS” value (E. coli 0111: B4 LPS; peptide concentration 1 μM) was 22.1031, the “binding affinity to LPS” value (E. coli 0111: B4 LPS; peptide concentration 5 μM) was 24.1888 and the “binding affinity to LPS” value (E. coli 0111: B4 LPS; peptide concentration 10 μM) was 28.4883. The “binding affinity to LPS” value (E. coli 0111: B4 LPS; peptide concentration 50 μM) was 44.9086, the “binding affinity to LPS” value (E. coli 0111: B4 LPS; peptide concentration 100 μM) was 71.3338 and the “mouse survival at 7 days” value (MDR E. coli CVCC195) was 60%. For the same compound, the “serum IL-1β concentration” value (LPS [2]) was 24.6 ~ 26.1 pg/mL, the “serum IL-6 concentration” value (LPS [2]) was 113.2 ~ 120.2 pg/mL and the “serum IL-10 concentration” value (LPS [2]) was 11.5 ~ 12.0 pg/mL. For the same compound, the “serum TNF-α concentration” value (LPS [2]) was 56.4 ~ 68.0 pg/mL, the “IAP levels in mice” value (LPS [3]; 12 h) was 684.97 and the “IAP levels in mice” value (LPS [3]; 24 h) was 544.938. It also gave an IκBα/β-actin ratio [4] of 1.143, a p-ERK1/2/ERK1/2 ratio [4] of 1.133 and a p-p65/p65 ratio [4] of 1.216. For the same compound, the ERK1/2 phosphorylation [4] was “not markedly attenuated”, the “therapeutic efficacy, survival, single-animal event” value (“therapeutic efficacy, survival” below) (MDR E. coli; event at day 2) was 1 and the “therapeutic efficacy, survival” value (MDR E. coli; event at day 4) was 1. The “therapeutic efficacy, survival” value (MDR E. coli; event at day 6) was 1.

`CSCC[C@H](NC(=O)[C@H](CCCNC(=N)N)NC(=O)[C@H](Cc1c[nH]c2ccccc12)NC(=O)[C@H](C)NC(=O)[C@H](Cc1c[nH]c2ccccc12)NC(=O)[C@H](CCCNC(=N)N)NC(=O)[C@H](Cc1c[nH]c2ccccc12)NC(=O)[C@H](C)NC(=O)[C@H](CCCCN)NC(=O)[C@H](Cc1ccccc1)NC(=O)[C@H](CCCNC(=N)N)NC(=O)[C@H](CCCNC(=N)N)NC(=O)[C@H](CCCCN)NC(=O)[C@H](CCCNC(=N)N)NC(=O)[C@H](CCCCN)NC(=O)[C@H](Cc1ccccc1)NC(=O)[C@H](Cc1ccccc1)NC(=O)[C@H](CO)NC(=O)[C@H](C)NC(=O)[C@H](CCCNC(=N)N)NC(=O)[C@@H](NC(=O)[C@H](CCCCN)NC(=O)[C@H](Cc1c[nH]c2ccccc12)NC(=O)[C@H](CCCNC(=N)N)NC(=O)CNC(=O)[C@H](CCC(N)=O)NC(=O)[C@@H](NC(=O)[C@@H](N)CCCNC(=N)N)C(C)C)C(C)C)C(=O)N[C@@H](CCCCN)C(=O)N[C@@H](CCCCN)C(=O)N[C@@H](CC(C)C)C(=O)N[C@@H](C)C(=O)N[C@@H](C)C(=O)N1CCC[C@H]1C(=O)N[C@@H](CO)C(=O)O` [R7] (H-RVQGRWKVRASFFKRKRRFKAWRWAWRMKKLAAPS-OH) showed an MBC (S. typhimurium CVCC533) of 2.26 µM (≈ 10.1 µg/mL), an MIC (S. typhimurium CVCC533) of 1.13 µM (≈ 5.06 µg/mL) and an MBC (Escherichia coli CVCC195) of 1.13 µM (≈ 5.06 µg/mL). It also gave an MIC (Escherichia coli CVCC195) of 1.13 µM (≈ 5.06 µg/mL), an MBC [1] of 2.26 µM (≈ 10.1 µg/mL) and an MIC [1] of 2.26 µM (≈ 10.1 µg/mL). The “binding affinity to LPS” value (E. coli 0111: B4 LPS; peptide concentration 0.05 μM) was 20.2273, the “binding affinity to LPS” value (E. coli 0111: B4 LPS; peptide concentration 0.1 μM) was 21.6184 and the “binding affinity to LPS” value (E. coli 0111: B4 LPS; peptide concentration 0.5 μM) was 51.5852. For the same compound, the “binding affinity to LPS” value (E. coli 0111: B4 LPS; peptide concentration 1 μM) was 77.8834, the “binding affinity to LPS” value (E. coli 0111: B4 LPS; peptide concentration 5 μM) was 85.6571 and the “binding affinity to LPS” value (E. coli 0111: B4 LPS; peptide concentration 10 μM) was 94.6127. For the same compound, the “binding affinity to LPS” value (E. coli 0111: B4 LPS; peptide concentration 50 μM) was 98.4665, the “binding affinity to LPS” value (E. coli 0111: B4 LPS; peptide concentration 100 μM) was 96.0469 and the “mouse survival at 7 days” value (MDR E. coli CVCC195) was 100%. For the same compound, the “serum IL-1β concentration” value (LPS [2]) was 16.9 ~ 17.5 pg/mL, the “serum IL-6 concentration” value (LPS [2]) was 92.5 ~ 99.3 pg/mL and the “serum IL-10 concentration” value (LPS [2]) was 13.9 ~ 14.5 pg/mL. For the same compound, the “serum TNF-α concentration” value (LPS [2]) was 43.1 ~ 46.1 pg/mL, the “effect on IAP activity compared to the LPS group” value (LPS [3]; 12 h after LPS challenge) was “significantly up-regulated” and the “effect on IAP activity compared to the LPS group” value (LPS [3]; 24 h after LPS challenge) was “no significant changes”. The “IAP levels in mice” value (LPS [3]; 12 h) was 1301.32, the “IAP levels in mice” value (LPS [3]; 24 h) was 927.606 and the IκBα/β-actin ratio [4] was 1.322. The p-ERK1/2/ERK1/2 ratio [4] was 1.134, the p-p65/p65 ratio [4] was 0.775 and the ERK1/2 phosphorylation [4] was “not markedly attenuated”. The “mouse survival, therapeutic treatment” value (MDR E. coli; MDR E. coli at LD100 i.p., then 7 μmol/kg R7 at 0.5 h and 8 h, recorded 7 d) was no more than 20%, the “therapeutic efficacy, survival” value (MDR E. coli; event at day 1) was 1 and the “therapeutic efficacy, survival” value (MDR E. coli; event at day 2) was 1. The “therapeutic efficacy, survival” value (MDR E. coli; event at day 3) was 1 and the “therapeutic efficacy, survival” value (MDR E. coli; event at day 5) was 1.
